Tested on: blood pressure of subjects
Assay: Effect of single administration of MN-08 on blood pressure of subjects (clinical trial)
Format: in vivo, human
From the text: All subjects in the following embodiments have signed informed consent forms, which comply with medical ethics regulations. According to the relevant provisions of Chinese Guidelines for the Prevention and Treatment of Hypertension (2018 Revision), the values measured for hypertension are the average blood pressure measured three times on a different day without the use of antihypertensive drugs. Therefore, in this embodiment, the baseline blood pressure of the subjects before administration is set as the average blood pressure measured at three different times: screening period, occupancy period, and 1 hour before administration, as shown in Tables 1 to 3.
In the clinical trial of amantadine mononitrate compound MN-08, it is investigated the effect of MN-08 on blood pressure in subjects. The experiments were carried out to analyze the blood pressure status of subjects in both the single dose and multiple dose groups.
During a single administration, each dose group is required to fast for at least 10 hours before administration, without water deprivation overnight, and on the day of administration, the medication is taken on an empty stomach at around 8 a.m., with 240 mL of water administered.

**Q.** For `CCC12CC3CC(N)(C1)CC(CO[N+](=O)[O-])(C3)C2` (stereo not drawn) [MN-08], which “SP (reduce amplitude)” value (Subject 7, 78 mg single dose, 6 hrs after adm. (D 1), vs baseline 106 mmHg) is on record?
**A.** −11.3%

**Q.** What about the DP (Subject 7, 78 mg single dose, 12 hrs after adm. (D 1), baseline 74 mmHg) of the same compound?
**A.** 60 mmHg

**Q.** What about the SP (Subject 7, 78 mg single dose, 12 hrs after adm. (D 1), baseline 106 mmHg) of the same compound?
**A.** 102 mmHg

**Q.** And the “DP (reduce amplitude)” value (Subject 7, 78 mg single dose, 12 hrs after adm. (D 1), vs baseline 74 mmHg)?
**A.** −18.9%

**Q.** And the “SP (reduce amplitude)” value (Subject 7, 78 mg single dose, 12 hrs after adm. (D 1), vs baseline 106 mmHg)?
**A.** −3.8%

**Q.** What about the DP (Subject 8, 96 mg single dose, 6 hrs after adm. (D 1), baseline 69 mmHg) of the same compound?
**A.** 51 mmHg

**Q.** And the SP (Subject 8, 96 mg single dose, 6 hrs after adm. (D 1), baseline 101 mmHg)?
**A.** 79 mmHg

**Q.** What about the “DP (reduce amplitude)” value (Subject 8, 96 mg single dose, 6 hrs after adm. (D 1), vs baseline 69 mmHg) of the same compound?
**A.** −26.1%

**Q.** And the “SP (reduce amplitude)” value (Subject 8, 96 mg single dose, 6 hrs after adm. (D 1), vs baseline 101 mmHg)?
**A.** −21.8%

**Q.** What about the DP (Subject 8, 96 mg single dose, 12 hrs after adm. (D 1), baseline 69 mmHg) of the same compound?
**A.** 61 mmHg

**Q.** And the SP (Subject 8, 96 mg single dose, 12 hrs after adm. (D 1), baseline 101 mmHg)?
**A.** 87 mmHg

**Q.** And the “DP (reduce amplitude)” value (Subject 8, 96 mg single dose, 12 hrs after adm. (D 1), vs baseline 69 mmHg)?
**A.** −11.6%

**Q.** What about the “SP (reduce amplitude)” value (Subject 8, 96 mg single dose, 12 hrs after adm. (D 1), vs baseline 101 mmHg) of the same compound?
**A.** −13.8%

**Q.** What about the DP (Subject 9, 96 mg single dose, 6 hrs after adm. (D 1), baseline 78 mmHg) of the same compound?
**A.** 63 mmHg

**Q.** What about the SP (Subject 9, 96 mg single dose, 6 hrs after adm. (D 1), baseline 121 mmHg) of the same compound?
**A.** 105 mmHg

**Q.** What about the “DP (reduce amplitude)” value (Subject 9, 96 mg single dose, 6 hrs after adm. (D 1), vs baseline 78 mmHg) of the same compound?
**A.** −19.2%

**Q.** What about the “SP (reduce amplitude)” value (Subject 9, 96 mg single dose, 6 hrs after adm. (D 1), vs baseline 121 mmHg) of the same compound?
**A.** −13.2%

**Q.** What about the DP (Subject 9, 96 mg single dose, 12 hrs after adm. (D 1), baseline 78 mmHg) of the same compound?
**A.** 68 mmHg

**Q.** What about the SP (Subject 9, 96 mg single dose, 12 hrs after adm. (D 1), baseline 121 mmHg) of the same compound?
**A.** 103 mmHg

**Q.** And the “DP (reduce amplitude)” value (Subject 9, 96 mg single dose, 12 hrs after adm. (D 1), vs baseline 78 mmHg)?
**A.** −12.8%

**Q.** And the “SP (reduce amplitude)” value (Subject 9, 96 mg single dose, 12 hrs after adm. (D 1), vs baseline 121 mmHg)?
**A.** −14.8%

**Q.** What about the DP (Subject 10, 114 mg single dose, 6 hrs after adm. (D 1), baseline 75 mmHg) of the same compound?
**A.** 62 mmHg

**Q.** And the SP (Subject 10, 114 mg single dose, 6 hrs after adm. (D 1), baseline 115 mmHg)?
**A.** 92 mmHg

**Q.** What about the “DP (reduce amplitude)” value (Subject 10, 114 mg single dose, 6 hrs after adm. (D 1), vs baseline 75 mmHg) of the same compound?
**A.** −17.3%

**Q.** What about the “SP (reduce amplitude)” value (Subject 10, 114 mg single dose, 6 hrs after adm. (D 1), vs baseline 115 mmHg) of the same compound?
**A.** −20.0%

**Q.** And the DP (Subject 10, 114 mg single dose, 12 hrs after adm. (D 1), baseline 75 mmHg)?
**A.** 57 mmHg

**Q.** What about the SP (Subject 10, 114 mg single dose, 12 hrs after adm. (D 1), baseline 115 mmHg) of the same compound?
**A.** 90 mmHg

**Q.** And the “DP (reduce amplitude)” value (Subject 10, 114 mg single dose, 12 hrs after adm. (D 1), vs baseline 75 mmHg)?
**A.** −24.0%

**Q.** What about the “SP (reduce amplitude)” value (Subject 10, 114 mg single dose, 12 hrs after adm. (D 1), vs baseline 115 mmHg) of the same compound?
**A.** −21.7%

**Q.** And the DP (Subject 11, 114 mg single dose, 6 hrs after adm. (D 1), baseline 85 mmHg)?
**A.** 68 mmHg

**Q.** What about the SP (Subject 11, 114 mg single dose, 6 hrs after adm. (D 1), baseline 126 mmHg) of the same compound?
**A.** 119 mmHg

**Q.** What about the “DP (reduce amplitude)” value (Subject 11, 114 mg single dose, 6 hrs after adm. (D 1), vs baseline 85 mmHg) of the same compound?
**A.** −20.0%

**Q.** What about the “SP (reduce amplitude)” value (Subject 11, 114 mg single dose, 6 hrs after adm. (D 1), vs baseline 126 mmHg) of the same compound?
**A.** −5.6%

**Q.** What about the DP (Subject 11, 114 mg single dose, 12 hrs after adm. (D 1), baseline 85 mmHg) of the same compound?
**A.** 68 mmHg

**Q.** What about the SP (Subject 11, 114 mg single dose, 12 hrs after adm. (D 1), baseline 126 mmHg) of the same compound?
**A.** 105 mmHg

**Q.** And the “DP (reduce amplitude)” value (Subject 11, 114 mg single dose, 12 hrs after adm. (D 1), vs baseline 85 mmHg)?
**A.** −20.0%

**Q.** And the “SP (reduce amplitude)” value (Subject 11, 114 mg single dose, 12 hrs after adm. (D 1), vs baseline 126 mmHg)?
**A.** −16.7%

**Q.** And the DP (Subject 12, 132 mg single dose, 6 hrs after adm. (D 1), baseline 78 mmHg)?
**A.** 59 mmHg

**Q.** What about the SP (Subject 12, 132 mg single dose, 6 hrs after adm. (D 1), baseline 123 mmHg) of the same compound?
**A.** 120 mmHg

**Q.** What about the “DP (reduce amplitude)” value (Subject 12, 132 mg single dose, 6 hrs after adm. (D 1), vs baseline 78 mmHg) of the same compound?
**A.** −24.4%

**Q.** What about the “SP (reduce amplitude)” value (Subject 12, 132 mg single dose, 6 hrs after adm. (D 1), vs baseline 123 mmHg) of the same compound?
**A.** −2.4%

**Q.** And the DP (Subject 12, 132 mg single dose, 12 hrs after adm. (D 1), baseline 78 mmHg)?
**A.** 60 mmHg

**Q.** What about the SP (Subject 12, 132 mg single dose, 12 hrs after adm. (D 1), baseline 123 mmHg) of the same compound?
**A.** 105 mmHg

**Q.** What about the “DP (reduce amplitude)” value (Subject 12, 132 mg single dose, 12 hrs after adm. (D 1), vs baseline 78 mmHg) of the same compound?
**A.** −23.1%

**Q.** And the “SP (reduce amplitude)” value (Subject 12, 132 mg single dose, 12 hrs after adm. (D 1), vs baseline 123 mmHg)?
**A.** −14.6%

**Q.** What about the DP (Subject 13, 132 mg single dose, 6 hrs after adm. (D 1), baseline 68 mmHg) of the same compound?
**A.** 54 mmHg

**Q.** What about the SP (Subject 13, 132 mg single dose, 6 hrs after adm. (D 1), baseline 106 mmHg) of the same compound?
**A.** 97 mmHg

**Q.** And the “DP (reduce amplitude)” value (Subject 13, 132 mg single dose, 6 hrs after adm. (D 1), vs baseline 68 mmHg)?
**A.** −20.6%

**Q.** What about the “SP (reduce amplitude)” value (Subject 13, 132 mg single dose, 6 hrs after adm. (D 1), vs baseline 106 mmHg) of the same compound?
**A.** −8.5%

**Q.** And the DP (Subject 13, 132 mg single dose, 12 hrs after adm. (D 1), baseline 68 mmHg)?
**A.** 56 mmHg

**Q.** And the SP (Subject 13, 132 mg single dose, 12 hrs after adm. (D 1), baseline 106 mmHg)?
**A.** 96 mmHg

**Q.** And the “DP (reduce amplitude)” value (Subject 13, 132 mg single dose, 12 hrs after adm. (D 1), vs baseline 68 mmHg)?
**A.** −17.6%

**Q.** What about the “SP (reduce amplitude)” value (Subject 13, 132 mg single dose, 12 hrs after adm. (D 1), vs baseline 106 mmHg) of the same compound?
**A.** −9.4%

**Q.** What about the “effect of a single dose on blood pressure” value (all dose groups (6, 12, 42, 60, 78, 96, 114, 132 mg), especially diastolic pressure) of the same compound?
**A.** can reduce the blood pressure

Reference: patent publication US20260242330A1, “USE OF AN AMANTADINE MONONITRATE COMPOUND IN MANUFACTURE OF A MEDICAMENT FOR THE PREVENTION AND TREATMENT OF HYPERTENSION” (GUANGZHOU MAGPIE PHARMACEUTICALS CO., LTD., priority 2022, published 2026)
